Experimental findings from ChEMBL document CHEMBL1152408, “Characterization of a Dispiroketal Spirolide Subclass from Alexandrium ostenfeldii” (J Nat Prod, 2009) are described below.

What all share (format): organism-based
Data set [1] deals with Mus musculus. The data set can be described thus: Toxicity in ip dosed mouse. Conditions: in vivo.
For data set [2], the system named is Mus musculus. The data set can be described thus: Toxicity in ip dosed mouse assessed as transient lethargy up to 2000 ug/kg. The following applies: in vivo, 2 mg/kg.
For data set [3], the system named is Mus musculus. As to the kind of experiment: Toxicity in ip dosed mouse assessed as transient hunching up to 2000 ug/kg. Conditions: in vivo, 2 mg/kg.

Molecules are shown by their SMILES.

Regarding `C=C1CCCC2=NC[C@H](C)[C@@H](C)C[C@@]23CCC([C@@H]2C=C(C)C(=O)O2)=C(C)[C@@H]3/C=C(\C)[C@@H](O)C[C@H]2O[C@]3(CC[C@@]4(O[C@@H](CC[C@@]4(C)O)C1)O3)C[C@H]2C` [SPIROLIDE C], in the data set on Mus musculus [1], the LD50 (commonly the dose at which mortality reaches 50%) amounted to 6.9 µg/kg.

In the case of `C=C1CCCC2=NC[C@H](C)[C@@H](C)C[C@@]23CCC([C@@H]2C=C(C)C(=O)O2)=C(C)[C@@H]3/C=C(\C)[C@@H](O)C[C@H]2O[C@@]3(C[C@H]2C)O[C@@H](CC[C@@]3(C)O)C1` [Spirolide H], the Activity result in the data set with Mus musculus [2] and with Mus musculus [3] was “Non-toxic” each time.

In turn, `C=C1CCCC2=NC[C@H](C)CC[C@@]23CCC([C@@H]2CC(C)C(=O)O2)=C(C)[C@@H]3/C=C(\C)[C@@H](O)C[C@H]2O[C@]3(CC[C@@]4(O[C@@H](CC[C@@]4(C)O)C1)O3)C[C@H]2C` (some centres not stated) [SPIROLIDE B] gave an LD50 in the data set with Mus musculus [1] of 6.9 µg/kg.

In the data set on Mus musculus [1], `C=C1CCCC2=NC[C@H](C)[C@@H](C)C[C@@]23CCC([C@@H]2C=C(C)C(=O)O2)=C(C)[C@@H]3/C=C(\C)[C@@H](O)C[C@@H]2CC[C@@]3(CC[C@@]4(O[C@@H](CC[C@@]4(C)O)C1)O3)O2` registered an LD50 of 6.9 µg/kg.

In turn, `C=C1CCCC2=NC[C@H](C)[C@@H](C)C[C@@]23CCC([C@@H]2C=C(C)C(=O)O2)=C(C)[C@@H]3/C=C(\C)CC[C@@H]2CC[C@]3(COC[C@]4(O[C@H]1CC[C@@]4(C)O)[C@@H]3O)O2` returned an LD50 in the data set with Mus musculus [1] of 6.9 µg/kg.

For `C=C1CCCC2=NC[C@H](C)CC[C@@]23CCC([C@@H]2C=C(C)C(=O)O2)=C(C)[C@@H]3/C=C(\C)[C@@H](O)C[C@H]2O[C@]3(CC[C@@]4(O[C@@H](CC[C@@]4(C)O)C1)O3)C[C@H]2C` [SPIROLIDE A], the LD50 with Mus musculus [1] is 6.9 µg/kg.
